Laboratory results: the supplement of paper PMC10307832

Legend:
Experiment in all cases: relative viability (nuclei count vs DMSO), 5 days (fraction); higher = more cells survive
[1] = compound: C[C@@H](Oc1cc(-c2cnn(C3CCNCC3)c2)cnc1N)c1c(Cl)ccc(F)c1Cl [Crizotinib] + Cc1cc(Nc2cc(N3CCN(C)CC3)nc(Sc3ccc(NC(=O)C4CC4)cc3)n2)n[nH]1 [Tozasertib] (partner 0.1 µM)
Summary of the method: (§1)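 One day after seeding in 1536-well plates, lung cancer cell lines were dosed by pin tool. Dosing was either single-drug or a fixed anchor-drug dose plus five library-drug doses (not always all listed) in √10 steps. After 5 days, nuclei were stained in one fix-and-stain step and counted on 4× images, and relative viability is the nuclei count of treated wells over that of vehicle wells, given as the median of duplicate plates.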

[2] = compound: O=C(c1cc(Cc2n[nH]c(=O)c3ccccc23)ccc1F)N1CCN(C(=O)C2CC2)CC1 [Olaparib] + CC1(C)CCC(c2ccc(Cl)cc2)=C(CN2CCN(c3ccc(C(=O)NS(=O)(=O)c4ccc(N[C@H](CCN5CCOCC5)CSc5ccccc5)c(S(=O)(=O)C(F)(F)F)c4)cc3)CC2)C1 [Navitoclax] (partner 0.5 µM)
Summary of the method: as §1

[3] = compound: C[C@@H](Oc1cc(-c2cnn(C3CCNCC3)c2)cnc1N)c1c(Cl)ccc(F)c1Cl [Crizotinib] + O=C(c1cc(Cc2n[nH]c(=O)c3ccccc23)ccc1F)N1CCN(C(=O)C2CC2)CC1 [Olaparib] (partner 8 µM)
Summary of the method: as §1

[4] = compound: C[C@@H](Oc1cc(-c2cnn(C3CCNCC3)c2)cnc1N)c1c(Cl)ccc(F)c1Cl [Crizotinib] + CC(=O)c1c(C)c2cnc(Nc3ccc(N4CCNCC4)cn3)nc2n(C2CCCC2)c1=O [Palbociclib] (partner 0.5 µM)
Summary of the method: as §1

| Cell Line | relative viability ([1]; first compound 0.01 µM) | relative viability ([1]; first compound 0.03162 µM) | relative viability ([1]; first compound 0.1 µM) | relative viability ([1]; first compound 1 µM) | relative viability ([2]; first compound 0.08 µM) | relative viability ([2]; first compound 0.253 µM) | relative viability ([2]; first compound 2.53 µM) | relative viability ([2]; first compound 8 µM) | relative viability ([3]; first compound 0.01 µM) | relative viability ([3]; first compound 0.03162 µM) | relative viability ([3]; first compound 0.1 µM) | relative viability ([3]; first compound 0.3162 µM) | relative viability ([3]; first compound 1 µM) | relative viability ([4]; first compound 0.01 µM) | relative viability ([4]; first compound 0.03162 µM) | relative viability ([4]; first compound 0.1 µM) | relative viability ([4]; first compound 0.3162 µM) | relative viability ([4]; first compound 1 µM) | relative viability ([1]; first compound 0.3162 µM) |
| --- | --- | --- | --- | --- | --- | --- | --- | --- | --- | --- | --- | --- | --- | --- | --- | --- | --- | --- | --- |
| NCI-H1915 | 0.49 | 0.463 | 0.439 | 0.382 | 0.721 | 0.725 | 0.739 | 0.486 | 0.228 | 0.257 | 0.259 | 0.222 | 0.26 | 0.517 | 0.525 | 0.488 | 0.51 | 0.476 |  |
| NCI-H1944 | 0.254 | 0.248 | 0.252 | 0.254 | 0.95 | 0.842 | 1.07 | 0.64 | 0.414 | 0.423 | 0.378 | 0.424 | 0.461 | 0.284 | 0.315 | 0.307 | 0.345 | 0.344 | 0.247 |
| NCI-H1975 | 0.644 | 0.705 | 0.782 | 0.746 | 1.28 | 0.957 | 1.14 | 1.02 | 0.806 | 0.743 | 0.794 | 0.749 | 0.774 | 0.594 | 0.792 | 0.554 | 0.475 | 0.493 | 0.705 |
| NCI-H1993 | 0.558 | 0.538 | 0.552 | 0.588 | 0.872 | 0.914 | 1.19 | 1.27 | 0.919 | 0.948 |  | 0.924 | 0.9 | 0.641 | 0.67 | 0.666 | 0.535 | 0.426 | 0.588 |
| NCI-H2009 | 0.746 | 0.712 | 0.731 | 0.665 | 1.31 | 1.05 | 1.1 | 0.996 | 0.666 | 0.712 | 0.697 | 0.685 | 0.741 | 0.185 | 0.208 | 0.249 | 0.189 | 0.193 | 0.678 |
| NCI-H2023 | 0.356 | 0.284 | 0.293 | 0.271 | 1.05 | 0.973 | 0.959 | 0.787 | 0.449 | 0.498 | 0.521 | 0.408 | 0.451 | 0.356 | 0.308 | 0.353 | 0.229 | 0.236 | 0.241 |
| NCI-H2085 | 0.763 | 0.801 | 0.775 | 0.884 | 1.25 | 1.03 | 1.12 | 0.929 | 0.737 | 0.74 | 0.755 | 0.752 | 0.823 | 0.464 | 0.484 | 0.469 | 0.442 | 0.44 |  |
| NCI-H2087 | 0.254 | 0.213 | 0.254 | 0.274 | 0.968 | 0.869 | 0.877 | 0.728 | 0.614 | 0.59 | 0.595 | 0.397 | 0.716 | 0.178 | 0.244 | 0.213 | 0.229 | 0.23 |  |
| NCI-H2126 | 0.721 | 0.813 | 0.819 | 0.808 | 0.875 | 0.824 | 0.749 | 0.853 | 0.81 | 0.936 | 0.952 | 0.897 | 0.907 | 0.313 | 0.385 | 0.37 | 0.342 | 0.351 | 0.8 |
| NCI-H2170 | 0.683 | 0.793 | 0.669 | 0.681 | 0.551 | 0.533 | 0.53 | 0.448 | 0.558 | 0.625 | 0.642 | 0.558 | 0.62 | 0.38 | 0.435 | 0.362 | 0.384 | 0.381 | 0.792 |
| NCI-H2228 | 0.237 | 0.229 | 0.172 | 0.182 | 1.14 | 0.809 | 0.707 | 0.587 | 0.539 | 0.595 | 0.624 | 0.716 | 0.668 | 0.714 | 0.608 | 0.691 | 0.432 | 0.367 | 0.209 |
| NCI-H2347 | 0.462 | 0.564 | 0.615 | 0.422 | 0.9 | 0.779 | 0.692 | 0.562 | 0.584 | 0.57 | 0.568 | 0.554 | 0.578 | 0.384 | 0.441 | 0.465 | 0.437 | 0.335 | 0.527 |
| NCI-H2405 | 0.702 | 0.811 | 0.761 | 0.697 | 1.21 | 0.878 | 0.869 | 0.677 | 0.794 | 0.837 | 0.906 | 0.751 | 0.901 | 0.479 | 0.515 | 0.509 | 0.56 | 0.501 | 0.706 |
| NCI-H3122 | 0.404 | 0.34 | 0.457 | 0.154 | 0.948 | 0.976 | 0.964 | 0.86 | 0.597 | 0.57 | 0.61 | 0.637 | 0.631 | 0.176 | 0.184 | 0.16 | 0.2 | 0.187 | 0.181 |
| PC-3 [JPC-3] | 0.834 | 0.878 | 0.934 | 0.855 | 0.784 | 0.729 | 0.743 | 0.76 | 1.09 | 1.22 | 1.13 |  | 1.12 | 0.53 | 0.566 | 0.545 |  | 0.553 | 0.836 |
| PC-14 | 0.545 | 0.625 | 0.624 | 0.602 | 1.04 | 0.934 | 0.867 | 0.722 | 0.274 | 0.28 | 0.307 | 0.401 | 0.289 | 0.52 | 0.53 | 0.419 | 0.566 | 0.535 | 0.593 |
| RERF-LC-KJ | 0.455 | 0.516 | 0.49 | 0.527 | 1.04 | 0.862 | 0.998 | 1.09 | 0.843 | 0.887 | 0.928 | 0.919 | 0.802 | 0.98 | 1.12 | 0.925 | 0.991 | 1.06 | 0.477 |
